Data: patent US8044089B2, “3-3-di-substituted-oxindoles as inhibitors of translation initiation” (President and Fellows of Harvard College, priority 2004, dated 2011)
“Also recorded” adds a separate entry of the source. Read-outs that look alike come from different tables or passages of the source.

Columns and labels:
[1] = tested on: intracellular Ca^2+ stores; assay: Ca2+ release from intracellular stores (FURA-2AM loaded cells); type: cell-based; set-up: key to Ca^2+ (Ca^2+ release from intracellular stores): a “+” denotes release; a “+/−” denotes inconclusive
Procedure, shortened: (§1)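 Ca2+ release scored in FURA-2AM loaded cells as "+" (release) or "+/−" (inconclusive); some compounds also tested with ER-targeted FRET Ca2+ sensors. Ca2+-depleting compounds were then tested for eIF2α phosphorylation by Western blot with phospho-specific anti-eIF2α antibody.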

[2] = tested on: ternary complex in transgenic KLN cells; assay: Ternary complex assay; type: cell-based
Experimental: FIGS. 3A-3C depict compound 1181 activity. (A) depicts the drug induced phosphorylation of eIF2α protein in control (lane 1), positive control (lane 2) and 1181 (lane 3) measured using Western blot analysis.
(§2) Ternary complex assay was 8-fold over DMSO at 20 μM, and cell growth was inhibited at <1 μM. The plasma levels for this in mice were estimated using liquid chromatography and mass spectrometry (LC-MS). Compound 1430 was orally administered at 160 mg/kg, 240 mg/kg, and 320 mg/kg to DBA/2J mice and the plasma concentration was measured at three time points, one hour, three hours, and six hours, and is set forth in Table 15. The plasma was isolated from the mice by heart-lung puncture and the samples were processed and analyzed by LC-MS. The concentrations at each time and dose are in nmoles/mL of plasma (n.d.=not detected; X=not determined).

[3] = Plasma levels after oral administration (LC-MS); type: in vivo; details: mouse, DBA/2J mice
Experimental: as §2

A549 lung cancer cells = assay: SRB growth inhibition of A549 lung cancer cells; type: cell-based, human
eIF2α = eIF2α phosphorylation measured by Western blot; type: cell-based; details: for eIF2α-P (phosphorylation of eIF2α measured by Western blot): unit or reference not given
Procedure, shortened: as §1

[4] = tested on: endoplasmic reticulum (ER) Ca^2+; assay: Depletion of endoplasmic reticulum Ca2+ (ER-targeted cameleon proteins, FRET); type: cell-based; details: ER-targeted Ca^2+-sensitive proteins
Experimental: FIGS. 2A-2B depict compound 1181 activity. […] These proteins emit light and the Ca^2+ content is measured by fluorescent resonance energy transfer (FRET).
Without intending to be bound by theory, the mechanism of action of translation initiation inhibitors is set forth in FIG. 1, and includes the depletion (complete or partial depletion) of intracellular calcium (Ca^2+) stores and phosphorylation of eIF2α. Compounds synthesized using the approaches described herein were screened for their ability to partially deplete intracellular Ca^2+ stores using FURA-2AM loaded cells (Benzaquen et al. (1995) Nature Medicine, 1:534, incorporated herein by reference in its entirety for all purposes). A limited subset of compounds were further screened for their ability to deplete endoplasmic reticulum (ER) Ca^2+. The Ca^2+ content of the ER was monitored using ER-targeted, Ca^2+ sensitive, recombinant proteins. These recombinant proteins emitted light by fluorescent resonance energy transfer (FRET) as a function of the Ca^2+ content of the medium. […] Compounds that depleted Ca^2+ were further evaluated for their ability to phosphorylate eIF2α. eIF2α phosphorylation was measured by Western blot analysis using the phospho-specific anti-eIF2α antibody, as previously described (Aktas et al. (1998) Proc. Natl. Acad. Sci. USA, 95:8280, incorporated herein by reference in its entirety for all purposes).

[5] = tested on: squamous cell carcinoma (KLN) tumor; assay: Squamous cell carcinoma (KLN) tumor mass in mice; type: in vivo; details: DBA/2J mice, oral, 320 mg/kg/day, six weeks
[6] = Homo sapiens, A549 lung cancer cells, unit inferred, read-out: SRB (IC50 for growth inhibition of A549 lung cancer cells)
[7] = A549 lung cancer cells, unit inferred, read-out: SRB (IC50 for growth inhibition of A549 lung cancer cells)

Row | Structure (SMILES) | Ca^2+ (Ca^2+ release from intracellular stores) [1] | eIF2α-P (phosphorylation of eIF2α measured by Western blot) (eIF2α) | IC50 (A549 lung cancer cells; [7]) [µM] | also measured
1 | Cc1cc(C2(c3ccccc3)C(=O)Nc3ccccc32)c(NS(=O)(=O)c2ccc(C(C)(C)C)cc2)cc1O (centres unmarked) [Compound 1430, 4-tert-butyl-N-[5-hydroxy-4-methyl-2-(2-oxo-3-phenyl-2,3-dihydro-1H-indol-3-yl)-phenyl]-benzenesulfonamide] | + | 4.8 | – | Ternary complex assay over DMSO ([2]; at 20 μM, over DMSO): 8 fold; concentration at 1 h ([3]; oral 160 mg/kg): 5.7 µM; concentration at 3 h ([3]; oral 160 mg/kg): 3.8 µM; concentration at 1 h ([3]; oral 240 mg/kg): 6.8 µM; concentration at 3 h ([3]; oral 240 mg/kg): 4 µM; concentration at 1 h ([3]; oral 320 mg/kg): 14 µM; concentration at 3 h ([3]; oral 320 mg/kg): 3.8 µM; concentration at 6 h ([3]; oral 320 mg/kg, 6 hours): 2.8 µM; IC50 (A549 lung cancer cells; Homo sapiens, A549, read-out: cell growth was inhibited at): < 1 µM; IC50 (A549 lung cancer cells; [6]): 0.9 µM; increase in eIF2α phosphorylation over DMSO (eIF2α; at 5 μM, over DMSO): 5 fold
2 | O=C1Nc2c(Cn3ccnc3)ccc(Cl)c2C1(c1ccccc1)c1ccccc1 [Compound 1401] | +/− | 2.56 | > 20 | –
3 | CC(C)(C)c1ccc(O)c(C2(c3ccc(F)cc3)C(=O)Nc3ccccc32)c1 (centres unmarked) [Compound 1210] | + | 1.86 | 4 | –
4 | CC(C)(C)c1ccc(O)c(C2(c3ccccc3)C(=O)Nc3ccc([N+](=O)[O-])cc32)c1 (centres unmarked) [Compound 1212] | + | 1.28 | 4 | –
5 | CC(C)(C)c1ccc(O)c(C2(c3ccccc3)C(=O)Nc3ccccc32)c1 (centres unmarked) [Compound 1181, 3-(5-tert-butyl-2-hydroxy-phenyl)-3-phenyl-1,3-dihydro-indol-2-one] | + | 5 | – | depletion of ER Ca^2+ (in words) [4]: depleted ER-Ca^2+; also recorded: depletion of endoplasmic reticulum (ER) Ca^2+; Ca^2+ release / depletion of intracellular Ca^2+ (in words) [1]: calcium (Ca^2+) release in a dose dependent manner; depletion of ternary complex (in words) ([2]; transgenic KLN cells): depletion of ternary complex; squamous cell carcinoma (KLN) tumor mass [5]: decreased squamous cell carcinoma tumor mass in mice; also recorded: decrease in squamous cell carcinoma (KLN) tumor mass; growth inhibition of cancer cells (in words) (A549 lung cancer cells; A549): inhibited growth of a cancer cell line (A549); IC50 (A549 lung cancer cells; [6]): 3 µM; eIF2α phosphorylation (in words) (eIF2α): phosphorylated eIF2α
6 | COc1ccccc1C1(c2cc(C(C)(C)C)ccc2O)C(=O)Nc2ccccc21 (centres unmarked) [Compound 1226] | + | 2.22 | 3 | –
7 | CCCCCCc1ccc(O)c(C2(c3ccccc3)C(=O)Nc3ccccc32)c1 (centres unmarked) [Compound 1288] | + | 6.28 | 3 | –
8 | CC(C)Cc1ccc(O)c(C2(c3ccccc3)C(=O)Nc3ccccc32)c1 (centres unmarked) [Compound 1281] | + | 7.94 | 3 | –
9 | CC(C)(C)c1cccc(C2(c3ccccc3)C(=O)Nc3ccccc32)c1 (centres unmarked) [Compound 1217] | + | 1.5 | 4 | –
10 | O=C1Nc2ccccc2C1(c1ccccc1)c1ccc(O)cc1 (centres unmarked) [Compound 1295] | + | 1.66 | 16 | –
11 | CCCc1ccc(O)c(C2(c3ccccc3)C(=O)Nc3ccccc32)c1 (centres unmarked) [Compound 1283] | + | 7.67 | 3 | –
12 | O=C1Nc2cc(Br)ccc2C1(c1ccccc1)c1ccccc1 [Compound 1273] | + | 1.72 | 6 | eIF2α phosphorylation (in words) (eIF2α): none of the compounds exhibited an increase in eIF2α phosphorylation relative to compound 1392
13 | O=C1Nc2ccccc2C1(c1ccccc1)c1ccc(O)c(F)c1 (centres unmarked) [Compound 1244] | + | 1.38 | 12 | –
